Assay results published in patent US9079876B2, “Imidazole derivatives and preparation method and use thereof” (Beijing Orbiepharm Co., Ltd., priority 2010, dated 2015).

Key:
[1] = Pharmacokinetic study, intravenous, rats; format: in vivo; conditions: male SD rats, IV 2 mg/kg
Method: Cimicoxib (cimicoxib) was IV administrated to male SD rats in vivo [2 mg/kg, 2 mg/ml, menstruum: DMSO/PEG 400/30% HP-b-CD ([…])], T1/2 was 3.20 h. The half-life of compound 1 was longer than cimicoxib.

COX-2 = target: T1, COX-2 (Canis lupus familiaris, UniProt Q8SPQ9); assay: Dog whole blood in vitro activity assay, COX-2; format: cell-based, beagle dog
T1 construct: in vitro activity study using beagle dog whole blood was conducted; from tissue; host or cells: beagle dog whole blood, stimulated with LPS (by the same method as for human blood)
T1 sequence (Q8SPQ9 18-604): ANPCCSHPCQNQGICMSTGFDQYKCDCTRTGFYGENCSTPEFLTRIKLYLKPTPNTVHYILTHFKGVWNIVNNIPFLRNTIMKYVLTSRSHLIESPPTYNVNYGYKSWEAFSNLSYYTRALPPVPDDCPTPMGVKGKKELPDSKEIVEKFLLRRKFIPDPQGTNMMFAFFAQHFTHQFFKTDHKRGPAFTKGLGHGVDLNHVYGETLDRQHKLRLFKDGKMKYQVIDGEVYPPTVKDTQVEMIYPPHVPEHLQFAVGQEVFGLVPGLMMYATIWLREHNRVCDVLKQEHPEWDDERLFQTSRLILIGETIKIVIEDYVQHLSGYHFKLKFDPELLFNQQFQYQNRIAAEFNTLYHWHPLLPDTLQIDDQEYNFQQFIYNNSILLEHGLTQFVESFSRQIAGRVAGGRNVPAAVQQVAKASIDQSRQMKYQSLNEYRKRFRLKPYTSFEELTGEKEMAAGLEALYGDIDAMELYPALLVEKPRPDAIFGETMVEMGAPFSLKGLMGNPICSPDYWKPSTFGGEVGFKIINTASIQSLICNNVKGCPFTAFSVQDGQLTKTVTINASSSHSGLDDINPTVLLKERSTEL

[2] = test system: rat paw swelling induced by carrageenan; assay: Rat paw swelling induced by carrageenan (inflammation model); format: in vivo, Wistar rats
Method: In vivo test: observation of the effect of compound 1 on rat paw swelling induced by carrageenan (inflammation model evaluation)
50 rats were randomized into 5 groups, with 10 animals in each group.
The total volume prepared for each dose group was determined based on the actual weight of the animals. A corresponding volume of purified water was taken, and was added with a sample of the test compounds or of the positive control, to allow homogenous dispersion. Sodium carboxymethyl cellulose was subsequently added, to make a homogenous suspension without obvious agglomerates.
Methods: 50 Wistar rats ([…], 167-199 g) were used in the study, with 25 males and 25 females. They were randomized into 5 groups, i.e. model group, positive control group, compound 1: low, middle and high dose groups. […] 1 hour after intragastric administration, 0.1 ml 1% carrageenan was intradermally injected in the right hind plantar paw to induce inflammation. After induction of inflammation, paw plantar volume and paw thickness were measured every another hour, consecutively for six times. Paw swelling rate (%) and inhibition rate (%) were calculated.
Assay methods: volume of the rat right paw was determined using UGO Basile plethysmograph, and the liquid level was kept constant for in the same animal in each measurement; thickness of the right hind paw were measured at the depiction line in the central paw with a digital vernier caliper.
The group mean and standard deviation of paw swelling rate in each group of animals were calculated, and then the following statistical analysis was performed. The test level was 0.05, and both statistical significance and biological significance were considered in the result analysis.
Levene's Test was used for homogeneity of variance test. Single-factor analysis of variance (ANOVA) was used for statistical analysis, if no statistical significance (P>0.05) was found. Dunnett's test (parametric method) analysis was used for multiple comparison analysis, if ANOVA found statistical significance (P≦0.05).
If there was heterogeneity of variance (P≦0.05), then the Kruskal-Wallis test was used. If the test result of Kruskal-Wallis test was statistically significant (P<0.05), then Dunnett's test (non-parametric method) was used for multiple comparison analysis.

[3] = 7 mg/kg intragastric, 1 h after inflammation
[4] = 7 mg/kg intragastric, 2 h after inflammation
[5] = 7 mg/kg intragastric, 3 h after inflammation
[6] = 7 mg/kg intragastric, 4 h after inflammation
[7] = 7 mg/kg intragastric, 5 h after inflammation
[8] = 7 mg/kg intragastric, 6 h after inflammation
[9] = 10 mg/kg intragastric, 1 h after inflammation
[10] = 10 mg/kg intragastric, 2 h after inflammation
[11] = 10 mg/kg intragastric, 3 h after inflammation
[12] = 10 mg/kg intragastric, 4 h after inflammation
[13] = 10 mg/kg intragastric, 5 h after inflammation
[14] = 10 mg/kg intragastric, 6 h after inflammation
[15] = 14 mg/kg intragastric, 1 h after inflammation
[16] = 14 mg/kg intragastric, 2 h after inflammation
[17] = 14 mg/kg intragastric, 3 h after inflammation
[18] = 14 mg/kg intragastric, 4 h after inflammation
[19] = 14 mg/kg intragastric, 5 h after inflammation
[20] = 14 mg/kg intragastric, 6 h after inflammation

t1/2 [1]: 5.37 ± 0.51 h | AUC(0-t) ([1]; rat, in vivo): 11400 ± 949 ng·h/mL | C0 ([1]; rat, in vivo): 1700 ± 259 ng/mL | clearance ([1]; rat, in vivo): 2.83 ± 0.27 mL/min/kg | half-life ([1]; rat, in vivo, 2 mg/ml, DMSO/PEG 400/30% HP-b-CD): 5.37 h | Vd ([1]; rat, in vivo, read-out: Vss): 1.16 ± 0.02 L/kg | IC50COX-1/IC50COX-2 (COX-2): 83.2 | IC50 (COX-2; read-out: IC50 (μg/mL) COX-2 (converted)): 2640 nM
SMILES: CS(=O)(=O)c1ccc(-n2cnc(Cl)c2-c2ccccc2)nc1 [Compound 1, 2-(4-chloro-5-phenyl-1H-imidazol-1-yl)-5-(methylsulfonyl)pyridine]
inhibition rate of plantar paw thickness swelling [2, 3]: 27.44% | inhibition rate of plantar paw volume swelling [2, 3]: 0.00% | plantar paw thickness swelling rate [2, 3]: 7.97 ± 3.84% | plantar paw volume swelling rate [2, 3]: 11.62 ± 4.73% | inhibition rate of plantar paw thickness swelling [2, 4]: 63.92% | inhibition rate of plantar paw volume swelling [2, 4]: 27.91% | plantar paw thickness swelling rate [2, 4]: 5.72 ± 4.27 % | plantar paw volume swelling rate [2, 4]: 12.62 ± 4.15% | inhibition rate of plantar paw thickness swelling [2, 5]: 76.74% | inhibition rate of plantar paw volume swelling [2, 5]: 43.96% | plantar paw thickness swelling rate [2, 5]: 4.01 ± 3.33 % | plantar paw volume swelling rate [2, 5]: 11.87 ± 3.62 % | inhibition rate of plantar paw thickness swelling [2, 6]: 77.45% | inhibition rate of plantar paw volume swelling [2, 6]: 58.90% | plantar paw thickness swelling rate [2, 6]: 4.29 ± 4.47 % | plantar paw volume swelling rate [2, 6]: 11.14 ± 3.73 % | inhibition rate of plantar paw thickness swelling [2, 7]: 85.81% | inhibition rate of plantar paw volume swelling [2, 7]: 55.32% | plantar paw thickness swelling rate [2, 7]: 2.68 ± 3.82 % | plantar paw volume swelling rate [2, 7]: 12.53 ± 5.03 % | inhibition rate of plantar paw thickness swelling [2, 8]: 89.21% | inhibition rate of plantar paw volume swelling [2, 8]: 57.59% | plantar paw thickness swelling rate [2, 8]: 1.67 ± 4.28 % | plantar paw volume swelling rate [2, 8]: 11.75 ± 4.71 % | inhibition rate of plantar paw thickness swelling [2, 9]: 0.00% | inhibition rate of plantar paw volume swelling [2, 9]: 0.00% | plantar paw thickness swelling rate [2, 9]: 12.91 ± 4.89% | plantar paw volume swelling rate [2, 9]: 12.48 ± 5.01% | inhibition rate of plantar paw thickness swelling [2, 10]: 50.35% | inhibition rate of plantar paw volume swelling [2, 10]: 6.86% | plantar paw thickness swelling rate [2, 10]: 7.87 ± 3.91 % | plantar paw volume swelling rate [2, 10]: 16.30 ± 5.55% | inhibition rate of plantar paw thickness swelling [2, 11]: 60.54% | inhibition rate of plantar paw volume swelling [2, 11]: 24.73% | plantar paw thickness swelling rate [2, 11]: 6.80 ± 3.68 % | plantar paw volume swelling rate [2, 11]: 15.95 ± 5.92% | inhibition rate of plantar paw thickness swelling [2, 12]: 69.63% | inhibition rate of plantar paw volume swelling [2, 12]: 45.15% | plantar paw thickness swelling rate [2, 12]: 5.78 ± 3.69 % | plantar paw volume swelling rate [2, 12]: 14.87 ± 5.07 % | inhibition rate of plantar paw thickness swelling [2, 13]: 71.80% | inhibition rate of plantar paw volume swelling [2, 13]: 44.78% | plantar paw thickness swelling rate [2, 13]: 5.32 ± 3.99 % | plantar paw volume swelling rate [2, 13]: 15.48 ± 5.58 % | inhibition rate of plantar paw thickness swelling [2, 14]: 66.63% | inhibition rate of plantar paw volume swelling [2, 14]: 43.68% | plantar paw thickness swelling rate [2, 14]: 5.16 ± 3.94 % | plantar paw volume swelling rate [2, 14]: 15.61 ± 7.62 % | inhibition rate of plantar paw thickness swelling [2, 15]: 33.98% | inhibition rate of plantar paw volume swelling [2, 15]: 0.77% | plantar paw thickness swelling rate [2, 15]: 7.25 ± 4.10% | plantar paw volume swelling rate [2, 15]: 10.82 ± 4.28% | inhibition rate of plantar paw thickness swelling [2, 16]: 67.67% | inhibition rate of plantar paw volume swelling [2, 16]: 30.59% | plantar paw thickness swelling rate [2, 16]: 5.12 ± 3.74 % | plantar paw volume swelling rate [2, 16]: 12.15 ± 5.20% | inhibition rate of plantar paw thickness swelling [2, 17]: 77.77% | inhibition rate of plantar paw volume swelling [2, 17]: 42.44% | plantar paw thickness swelling rate [2, 17]: 3.83 ± 2.59 % | plantar paw volume swelling rate [2, 17]: 12.20 ± 5.19 % | inhibition rate of plantar paw thickness swelling [2, 18]: 79.53% | inhibition rate of plantar paw volume swelling [2, 18]: 48.46% | plantar paw thickness swelling rate [2, 18]: 3.90 ± 3.54 % | plantar paw volume swelling rate [2, 18]: 13.97 ± 6.25 % | inhibition rate of plantar paw thickness swelling [2, 19]: 86.47% | inhibition rate of plantar paw volume swelling [2, 19]: 53.52% | plantar paw thickness swelling rate [2, 19]: 2.55 ± 2.95 % | plantar paw volume swelling rate [2, 19]: 13.03 ± 4.88 % | inhibition rate of plantar paw thickness swelling [2, 20]: 84.04% | inhibition rate of plantar paw volume swelling [2, 20]: 59.93% | plantar paw thickness swelling rate [2, 20]: 2.47 ± 2.70 % | plantar paw volume swelling rate [2, 20]: 11.10 ± 4.42 % | inhibition of the paw swelling rate ([2]; low, middle and high dose groups (7, 10, 14 mg/kg), 4 hours after inflammation): above 30%
